Columns and labels:
Assay in all cases: Pre-emergent control of seed germination, soil drench
Format in all cases: in vivo
Cotton = settings: Table IV
Excerpt: (§1) Four parts by weight of the compound, 0.08 part of sorbitan trioleate (Span 85), and 0.02 part of a sorbitan monooleate polyoxyethylene derivative (Tween 80) are dipersed in 40 milliliters of acetone to produce a concentrate composition in the form of a water-dispersible liquid containing the predetermined oxirane compound as the sole active agent.
(§2) A portion of each of these concentrate compositions were separately dispersed in portions of water to provide aqueous compositions, containing 0.44 pound of the oxirane compound per 100 gallons of ultimate aqueous mixture.
(§3) The aqueous compositions were then employed for the treatment of seed beds of good agricultural soil which had been prepared and seeded with the seeds of various grass species and broadleaf plants. The grass species included white winter wheat, cultured rice, pigweeds, crabgrass, cheat grass, wild oats, Johnson grass, barnyard grass and yellow foxtail; and the broadleaf plants included corn. In the treating operations, a predetermined quantity of each of the compositions was applied to separate seedbeds as a soil drench at a rate of about 0.43 acre inch of aqueous composition per acre. The quantities were controlled to supply a substantial uniform dosage in a seedbed equivalent to 1.0, 2.0 and 5.0 pounds of the oxirane compound per acre. These dosages correspond, respectively, to a concentration, within the soil depth penetrated of about 1.6, 3.2 and 8.0 parts by weight of the oxirane compound per million parts by weight of soil. Other seedbeds were similarly seeded with the named plant species but were left untreated to serve as checks.
(§4) After about 2 weeks the seedbeds were examined to ascertain what control of the growth of seeds had been obtained.
(§5) Separate aqueous compositions containing the 2-(m-chlorophenyl)-2-(2,2,2-trichloroethyl)oxirane (Cmpd. A) and 2-(m-bromophenyl)-2-(2,2,2-trichloroethyl)oxirane (Cmpd. C) compounds of the present invention were prepared as in Example 32 for comparative per-emergence herbicide tests against noxious grass species with the known 2 -(p-chlorophenyl)-2-(2,2,2-trichloroethyl)oxirane (Cmpd. B) compound and 2-(p-bromophenyl)-2-(2,2,2-trichloroethyl)oxirane (Cmpd. D). The pre-emergence tests were conducted in Example 32 and the results of such tests are set forth below in Table III.
(§6) An aqueous composition containing 2-(α,α,α -trifluoro-m-tolyl)-2-(2,2,2-trichloroethyl)oxirane was prepared as described in Example 32. The composition was then employed according to the procedures of Example 32 except that lower concentrations of the oxirane compound were employed in the composition.
(§7) The percent control of the various plant species at the employed dosage rate of the 2-(α,α,α-trifluoro-m-tolyl)- 2-(2,2,2-trichloroethyl) supplied by the composition is set forth in the following Table IV.

White Winter Wheat = settings: Table IV
Excerpt: as §1, §2, §3, §4, §6, §7

Cultured Rice = settings: Table IV
Excerpt: as §1, §2, §3, §4, §6, §7

Beans = settings: Table IV
Excerpt: as §1, §2, §3, §4, §6, §7

Soybeans = settings: Table IV
Corn = settings: Table IV
Excerpt: as §1, §2, §3
After about 2 weeks the seedbeds were examined to ascertain what control of the growth of seeds had been obtained. […]
as §6, §7

Pigweeds = settings: for Percent Pre-Emergent Control of Seed Germination: Table IV, Pigweeds
Excerpt: as §1, §2, §3, §4
(§8) were prepared as in Example 32 and similarly employed for the pre-emergencetreatment of various plant species.
as §6, §7

Yellow Foxtail = settings: for Percent Pre-Emergent Control of Seed Germination: Table IV, Yellow Foxtail
Excerpt: as §1, §2, §3, §4, §8, §6, §7

Wild Oats = settings: for Percent Pre-Emergent Control of Seed Germination: Table IV, Wild Oats
Excerpt: as §1, §2, §3, §4, §8, §6, §7

Barnyard Grass = settings: for Percent Pre-Emergent Control of Seed Germination: Table IV, Barnyard Grass
Excerpt: as §1, §2, §3, §4, §8, §6, §7

Crabgrass [1] = settings: Table IV, Crabgrass
Excerpt: as §1, §2, §3, §4, §8, §5, §6, §7

Johnson Grass = settings: Table IV, Johnson Grass
Excerpt: as §1, §2, §3, §4, §8, §5, §6, §7

Crabgrass [2] = settings: 20 pounds per acre

## FC(F)(F)c1cccc(C2(CC(Cl)(Cl)Cl)CO2)c1 (stereo not drawn) [Example 4, 2-(α,α,α -trifluoro-m-tolyl)-2-(2,2,2-trichloroethyl)oxirane]
Cotton; 0.03 pounds
  Percent Pre-Emergent Control of Seed Germination: 0%
Cotton; 0.07 pounds
  Percent Pre-Emergent Control of Seed Germination: 0%
Cotton; 0.13 pounds
  Percent Pre-Emergent Control of Seed Germination: 0%
Cotton; 0.25 pounds
  Percent Pre-Emergent Control of Seed Germination: 0%
Cotton; 0.5 pounds
  Percent Pre-Emergent Control of Seed Germination: 30%
Cotton; 1.0 pounds
  Percent Pre-Emergent Control of Seed Germination: 20%
White Winter Wheat; 0.03 pounds
  Percent Pre-Emergent Control of Seed Germination: 0%
White Winter Wheat; 0.07 pounds
  Percent Pre-Emergent Control of Seed Germination: 50%
White Winter Wheat; 0.13 pounds
  Percent Pre-Emergent Control of Seed Germination: 100%
White Winter Wheat; 0.25 pounds
  Percent Pre-Emergent Control of Seed Germination: 100%
White Winter Wheat; 0.5 pounds
  Percent Pre-Emergent Control of Seed Germination: 100%
White Winter Wheat; 1.0 pounds
  Percent Pre-Emergent Control of Seed Germination: 100%
Cultured Rice; 0.03 pounds
  Percent Pre-Emergent Control of Seed Germination: 0%
Cultured Rice; 0.07 pounds
  Percent Pre-Emergent Control of Seed Germination: 30%
Cultured Rice; 0.13 pounds
  Percent Pre-Emergent Control of Seed Germination: 100%
Cultured Rice; 0.25 pounds
  Percent Pre-Emergent Control of Seed Germination: 100%
Cultured Rice; 0.5 pounds
  Percent Pre-Emergent Control of Seed Germination: 100%
Cultured Rice; 1.0 pounds
  Percent Pre-Emergent Control of Seed Germination: 100%
Beans; 0.03 pounds
  Percent Pre-Emergent Control of Seed Germination: 30%
Beans; 0.07 pounds
  Percent Pre-Emergent Control of Seed Germination: 30%
Beans; 0.13 pounds
  Percent Pre-Emergent Control of Seed Germination: 30%
Beans; 0.25 pounds
  Percent Pre-Emergent Control of Seed Germination: 60%
Beans; 0.5 pounds
  Percent Pre-Emergent Control of Seed Germination: 70%
Beans; 1.0 pounds
  Percent Pre-Emergent Control of Seed Germination: 95%
Soybeans; 0.03 pounds
  Percent Pre-Emergent Control of Seed Germination: 0%
Soybeans; 0.07 pounds
  Percent Pre-Emergent Control of Seed Germination: 0%
Soybeans; 0.13 pounds
  Percent Pre-Emergent Control of Seed Germination: 100%
Soybeans; 0.25 pounds
  Percent Pre-Emergent Control of Seed Germination: 40%
Soybeans; 0.5 pounds
  Percent Pre-Emergent Control of Seed Germination: 50%
Soybeans; 1.0 pounds
  Percent Pre-Emergent Control of Seed Germination: 60%
Corn; 0.03 pounds
  Percent Pre-Emergent Control of Seed Germination: 0%
Corn; 0.07 pounds
  Percent Pre-Emergent Control of Seed Germination: 0%
Corn; 0.13 pounds
  Percent Pre-Emergent Control of Seed Germination: 0%
Corn; 0.25 pounds
  Percent Pre-Emergent Control of Seed Germination: 90%
Corn; 0.5 pounds
  Percent Pre-Emergent Control of Seed Germination: 95%
Corn; 1.0 pounds
  Percent Pre-Emergent Control of Seed Germination: 95%
Pigweeds; 0.03 pounds
  Percent Pre-Emergent Control of Seed Germination: 0%
Pigweeds; 0.07 pounds
  Percent Pre-Emergent Control of Seed Germination: 30%
Pigweeds; 0.13 pounds
  Percent Pre-Emergent Control of Seed Germination: 50%
Pigweeds; 0.25 pounds
  Percent Pre-Emergent Control of Seed Germination: 100%
Pigweeds; 0.5 pounds
  Percent Pre-Emergent Control of Seed Germination: 100%
Pigweeds; 1.0 pounds
  Percent Pre-Emergent Control of Seed Germination: 100%
Yellow Foxtail; 0.03 pounds
  Percent Pre-Emergent Control of Seed Germination: 30%
Yellow Foxtail; 0.07 pounds
  Percent Pre-Emergent Control of Seed Germination: 0%
Yellow Foxtail; 0.13 pounds
  Percent Pre-Emergent Control of Seed Germination: 95%
Yellow Foxtail; 0.25 pounds
  Percent Pre-Emergent Control of Seed Germination: 100%
Yellow Foxtail; 0.5 pounds
  Percent Pre-Emergent Control of Seed Germination: 100%
Yellow Foxtail; 1.0 pounds
  Percent Pre-Emergent Control of Seed Germination: 100%
Wild Oats; 0.03 pounds
  Percent Pre-Emergent Control of Seed Germination: 30%
Wild Oats; 0.07 pounds
  Percent Pre-Emergent Control of Seed Germination: 85%
Wild Oats; 0.13 pounds
  Percent Pre-Emergent Control of Seed Germination: 95%
Wild Oats; 0.25 pounds
  Percent Pre-Emergent Control of Seed Germination: 95%
Wild Oats; 0.5 pounds
  Percent Pre-Emergent Control of Seed Germination: 95%
Wild Oats; 1.0 pounds
  Percent Pre-Emergent Control of Seed Germination: 95%
Barnyard Grass; 0.03 pounds
  Percent Pre-Emergent Control of Seed Germination: 50%
Barnyard Grass; 0.07 pounds
  Percent Pre-Emergent Control of Seed Germination: 95%
Barnyard Grass; 0.13 pounds
  Percent Pre-Emergent Control of Seed Germination: 95%
Barnyard Grass; 0.25 pounds
  Percent Pre-Emergent Control of Seed Germination: 95%
Barnyard Grass; 0.5 pounds
  Percent Pre-Emergent Control of Seed Germination: 95%
Barnyard Grass; 1.0 pounds
  Percent Pre-Emergent Control of Seed Germination: 95%
Crabgrass [1]; 0.03 pounds
  Percent Pre-Emergent Control of Seed Germination: 60%
Crabgrass [1]; 0.07 pounds
  Percent Pre-Emergent Control of Seed Germination: 75%
Crabgrass [1]; 0.13 pounds
  Percent Pre-Emergent Control of Seed Germination: 100%
Crabgrass [1]; 0.25 pounds
  Percent Pre-Emergent Control of Seed Germination: 100%
Crabgrass [1]; 0.5 pounds
  Percent Pre-Emergent Control of Seed Germination: 100%
Crabgrass [1]; 1.0 pounds
  Percent Pre-Emergent Control of Seed Germination: 100%
Johnson Grass; 0.03 pounds
  Percent Pre-Emergent Control of Seed Germination: 0%
Johnson Grass; 0.07 pounds
  Percent Pre-Emergent Control of Seed Germination: 80%
Johnson Grass; 0.13 pounds
  Percent Pre-Emergent Control of Seed Germination: 100%
Johnson Grass; 0.25 pounds
  Percent Pre-Emergent Control of Seed Germination: 100%
Johnson Grass; 0.5 pounds
  Percent Pre-Emergent Control of Seed Germination: 100%
Johnson Grass; 1.0 pounds
  Percent Pre-Emergent Control of Seed Germination: 100%

## ClC(Cl)(Cl)CC1(c2cccc(OCc3ccccc3)c2)CO1 (centres unmarked) [Example 16, 2-(m-(benzyloxy)phenyl)-2-(2,2,2-trichloroethyl)oxirane]
Pigweeds; pigweed, 20 pounds per acre
  pre-emergence control: substantially complete control
Yellow Foxtail; yellow foxtail, 20 pounds per acre
  pre-emergence control: substantially complete control
Wild Oats; wild oats, 20 pounds per acre
  pre-emergence control: substantially complete control
Barnyard Grass; barnyard grass, 20 pounds per acre
  pre-emergence control: substantially complete control
Crabgrass [2]
  pre-emergence control: substantially complete control

Reference: patent US4018801A, “Substituted oxirane compounds” (The Dow Chemical Company, priority 1975, dated 1977)
